Key:
C57BL/6 mice [1] = test: Anti-fibrotic screening of amorphous drug formulations in 500 μm alginate capsules, 2-week intraperitoneal implantation; type: in vivo; conditions: conclusion; alginate hydrogel, ceramic, glass, PDMS and polystyrene beads
Text: For screening of anti-fibrotic drug activity, amorphous drug formulations were encapsulated inside 500 μm alginate capsules. Broad-spectrum anti-inflammatory agents curcumin, dexamethasone, and rapamycin have been used for preventing fibrosis of various biomaterials, such as polymer PLGA and hydrogel alginate. A panel of lead drug candidates (e.g., compounds of Formulae I-X) including the traditional broad-spectrum anti-inflammatories as well as agents targeted to essential macrophage biology pathways (e.g., TNFα, NFκB, p110δ/PI3K, TGFβ, and CSF1R) were selected. […] SLG20 alginate hydrogel spheres with these lead drug candidates were prepared as amorphous formulations to investigate the effect of macrophage immunomodulation on foreign body response. Drugs were encapsulated in amorphous form prepared by first dissolving in an organic solvent (e.g., vehicle in FIGS. 7, 9) then by mixing with alginate aqueous solution. Efficacy in preventing fibrosis was assessed in C57BL/6 mice at 2-weeks post implantation into the intraperitoneal (IP) cavity. Drug-containing spheres (500 μl/animal) were then implanted into the intraperitoneal space of C57BL/6 mice for 14 days. After this period, spheres were harvested and studied for cellular deposition and fibrosis.
All animal protocols were approved by the MIT Committee on Animal Care, and all surgical procedures and post-operative care was supervised by MIT Division of Comparative Medicine veterinary staff. Immune-competent male non-diabetic or STZ-induced diabetic C57BL/6 mice (Jackson Laboratory, Bar Harbor, Me.) were anesthetized with 3% isoflurane in oxygen and had their abdomens shaved and sterilized using betadine and isopropanol. Preoperatively, all mice also received a 0.05 mg/kg dose of buprenorphine subcutaneously as a pre-surgical analgesic, along with 0.3 mL of 0.9% saline subcutaneously to prevent dehydration. A […] incision was made along the midline of the abdomen and the peritoneal lining was exposed using blunt dissection. […]

C57BL/6 mice [2] = test: Crystalline drug-loaded alginate capsules, long-term IP/SC implantation, prevention of fibrosis; type: in vivo; conditions: crystalline form in alginate capsules, retrieved after 1, 3 and 6 months from IP space
Text: Lead compounds identified by screening the amorphous formulations (e.g., compounds of Formulae I-X, particularly LY215799, Dx, Curcumin, GW2580, QNZ and Ki20227) were studied for long-term release and prevention of fibrosis following encapsulation in crystalline form and implantation into the intraperitoneal (IP) space of C57BL/6 mice for long term testing. […] Drug extraction analysis by HPLC also determined that notable percentages (e.g., more than 50%) of the loaded drug remained within the retrieved capsules (FIG. 22D), particularly in the subcutaneous implanted samples. […] In contrast, capsules retrieved from the IP space 6 months post-implantation were identified with only 2-40% of the loaded drug remaining within the retrieved capsules.
All animal protocols were approved by the MIT Committee on Animal Care, and all surgical procedures and post-operative care was supervised by MIT Division of Comparative Medicine veterinary staff. Immune-competent male non-diabetic or STZ-induced diabetic C57BL/6 mice (Jackson Laboratory, Bar Harbor, Me.) were anesthetized with 3% isoflurane in oxygen and had their abdomens shaved and sterilized using betadine and isopropanol. Preoperatively, all mice also received a 0.05 mg/kg dose of buprenorphine subcutaneously as a pre-surgical analgesic, along with 0.3 mL of 0.9% saline subcutaneously to prevent dehydration. A […] incision was made along the midline of the abdomen and the peritoneal lining was exposed using blunt dissection. The peritoneal wall was then grasped with forceps and a 0.5-1 mm incision was made along the linea alba. A desired volume of spheres (all materials without islets, as well as SLG20 spheres encapsulating rat islets) were then loaded into a sterile pipette and implanted into the peritoneal cavity through the incision. The incision was then closed using 5-0 taper-tipped polydioxanone (PDS II) absorbable sutures. The skin was then closed over the incision using a wound clip and tissue glue.
At desired time points post-implantation or transplantation (with encapsulated islets), as specified in figures, mice were euthanized by CO2 administration, followed by cervical dislocation. In certain instances, 5 ml of ice cold PBS was first injected in order perform an intraperitoneal lavage to rinse out and collect free-floating intraperitoneal immune cells. An incision was then made using the forceps and scissors along the abdomen skin and peritoneal wall, and intraperitoneal lavage volumes were pipetted out into fresh 15 ml falcon tubes (each prepared with 5 ml of RPMI cell culture media). Next, a wash bottle tip was inserted into the abdominal cavity. KREBS buffer was then used to wash out all material spheres from the abdomen and into petri dishes for collection. After ensuring all the spheres were washed out or manually retrieved (if fibrosed directly to intraperitoneal tissues), they were transferred into 50 mL conical tubes for downstream processing and imaging. After intraperitoneal lavage and sphere retrieval, remaining fibrosed intraperitoneal tissues were also excised for downstream FACS and expression analyses.
For phase contrast imaging, retrieved materials were gently washed using Krebs buffer and transferred into 35 mm petri dishes for phase contrast microscopy using an Evos X1 microscope (Advanced Microscopy Group).
Immunofluorescence imaging was used to determine immune populations attached to spheres. […]

[3] = system: inflammatory macrophage markers Sphk1, TNFα, Arg1, IL1; test: NanoString multiplexed gene expression analysis of retrieved capsules; type: in vivo, C57BL/6 mice; conditions: amorphous drug-loaded capsules, 2 weeks IP; CSF1R-targeting agents compared
Protocol: RNAs for mock-implanted (mock) controls, or for various drug-loaded 0.5 mm diameter alginate sphere-bearing mice (n=4/group) were isolated from tissue samples taken at various time points after implantation, as described. Respective RNAs were quantified, diluted to the appropriate concentration (100 ng/μl), and then 500 ng of each sample was processed according to NanoString manufacturer protocols for expression analysis via our customized multiplexed gene mouse macrophage subtyping panel. RNA levels (absolute copy numbers) were obtained following nCounter (NanoString Technologies Inc., Seattle, Wash.) quantification, and group samples were analyzed using nSolver analysis software (NanoString Technologies Inc., Seattle, Wash.).

[4] = In vitro drug release from alginate capsules loaded with crystalline or amorphous formulations; type: physicochemical
Protocol: Release study was carried out in 3 different media, a normal saline-Isopropyl alcohol (10%) mixture, a phosphate buffer (pH 7.4), or for accelerated condition with phosphate buffered saline (pH 7.4) either with 0.1% w/v or 03% w/v SDS. Release study at NS+10% IPA was carried out in 2 ml medium at 37° C. Sampling was carried out by replacement of 1.5 ml of release medium by total replacement of release medium with fresh medium. […] For release in accelerated condition (PBS+SDS), the same time points were followed while 20 μl of drug loaded capsules were incubated in 2 ml release medium to achieve sink conditions. Drug concentration in samples was measured by reverse phase HPLC on C-18 column with a mobile phase or using UV calibrated system. An isocratic mode was set at a flow rate of 0.5-2 ml/min and a different wave-length of nm and 20-50 μl of samples was injected into an HPLC system (Waters, LC-Module-I) or UV analyzed. Calibration curves were prepared in concentration range of 0.05-10 μg/ml. Using prepared calibration curves, drugs concentration in different release samples were calculated.

Structure (SMILES)	efficacy in inhibiting fibrosis of implanted biomaterial (C57BL/6 mice [1])	fibrosis by phase contrast imaging and confocal microscopy (C57BL/6 mice [2])	also measured
COc1cc(Oc2ccnc3cc(OC)c(OC)cc23)ccc1NC(=O)NC(C)c1nccs1 (centres unmarked) [Ki20227, N-[4-[(6,7-Dimethoxy-4-quinolinyl)oxy]-2-methoxyphenyl]-N′-[1-(2-thiazolyl)ethyl]urea]	demonstrated efficacy in inhibiting fibrosis	fibrosis free	–
Nc1ccc2ncnc(NCCc3ccc(Oc4ccccc4)cc3)c2c1 [QNZ, N4-(4-phenoxyphenethyl)quinazoline-4,6-diamine]	–	fibrosis free	–
Cc1cccc(-c2nn3c(c2-c2ccnc4ccc(C(N)=O)cc24)CCC3)n1 [LY215799, 4-(2-(6-methylpyridin-2-yl)-5,6-dihydro-4H-pyrrolo[1,2-b]pyrazol-3-yl)quinoline-6-carboxamide]	–	fibrosis free	–
Cc1ccc(Nc2c(C(N)=O)cnc3cc(-c4ccc(S(C)(=O)=O)cc4)ccc23)cc1C [cFMS receptor inhibitor III, 4-(3,4-Dimethylanilino)-7-(4-(methylsulfonyl)phenyl)quinoline-3-carboxamide]	demonstrated efficacy in inhibiting fibrosis	–	gene expression responses [3]: almost identical gene expression responses
COc1cc(/C=C/C(=O)CC(=O)/C=C/c2ccc(O)c(OC)c2)ccc1O [Curcumin, (1E,6E)-1,7-bis (4-hydroxy-3-methoxyphenyl)-1,6-heptadiene-3,5-dione]	–	fibrosis free	drug release profile ([4]; amorphous curcumin encapsulated in alginate, in vitro up to 2 months): quicker drug release; drug release profile ([4]; crystalline curcumin encapsulated in alginate, in vitro up to 2 months): releases more slowly initially, but can be maintained for much longer periods of time; duration of long-term release (slow surface erosion) ([4]; crystalline curcumin loaded into alginate spheres): at least 2 months; drug release profile ([4]; mixed crystalline:amorphous 3:1 curcumin in alginate): both quick and extended release

From patent US10851069B2, “Compositions of crystallized hydrophobic compounds and methods of making and using same” (Massachusetts Institute of Technology, priority 2016, dated 2020)
